Measured values as given in US8835485B2, “Prevention and treatment of sarcopenia” (PsiOxus Therapeutics Limited, priority 2009, dated 2014).

Assays:
healthy subjects = details: cited from earlier work
5-HT1a receptor = biological target: T1, 5-HT1a receptor (Homo sapiens, UniProt P08908); details: functional tests; cited from earlier work
T1 sequence (P08908 1-422): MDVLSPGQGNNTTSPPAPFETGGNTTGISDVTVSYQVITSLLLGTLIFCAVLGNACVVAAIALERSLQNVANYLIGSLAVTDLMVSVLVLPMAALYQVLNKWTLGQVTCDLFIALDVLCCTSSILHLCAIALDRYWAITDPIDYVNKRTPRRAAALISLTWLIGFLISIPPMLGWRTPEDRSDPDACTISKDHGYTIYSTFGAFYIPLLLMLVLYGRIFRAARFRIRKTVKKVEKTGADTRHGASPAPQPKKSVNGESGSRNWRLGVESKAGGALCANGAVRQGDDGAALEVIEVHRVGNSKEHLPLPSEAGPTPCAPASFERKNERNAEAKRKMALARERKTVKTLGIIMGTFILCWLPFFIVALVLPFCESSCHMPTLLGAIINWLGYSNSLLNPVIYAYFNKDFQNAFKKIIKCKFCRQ

[1] = test system: Young, healthy, male Wistar Han rats; assay: S-Pindolol in young healthy rats, 16 days: body weight, lean mass, organ weights; assay type: in vivo, rat; details: for Gastrocnemius organ weight at the end of the study: gavage once daily, placebo 1234 ± 30; for Soleus organ weight at the end of the study / EDL organ weight at the end of the study / Tibialis organ weight at the end of the study: gavage; for Soleus organ weight at the end of the study: placebo 97 ± 2; for EDL organ weight at the end of the study: placebo 104 ± 3; for Tibialis organ weight at the end of the study: placebo 447 ± 9; for EDL percent increase in weight / Soleus percent increase in weight: versus placebo
Description: Young, healthy, male Wistar Han rats (201.8±2.4 g) were housed in groups of two to three per cage under standard conditions. Animals were randomized to receive either 0.3 mg S-Pindolol/kg/d (n=5), 3 mg S-Pindolol/kg/d (n=5) or placebo (n=16) once daily per gavage for 16 days. Body composition (lean mass) of the animals was analyzed using the EchoMRI-700 system (Echo Medical Systems, Houston, Tex., USA) before treatment and at the end of the study. Body weight was recorded before treatment and at the end of study. Organ weights were recorded at the end of study.

[2] = test system: Old, healthy, male Wistar Han rats; assay: S-Pindolol in old (19 month) rats, 28 days: body weight, lean mass, organ weights; assay type: in vivo, rat; details: 3 mg/kg/d
Description: Old, healthy, male Wistar Han rats (age 19 month, at the start of the experiment) were housed in groups of two to three per cage under standard laboratory conditions. Animals were randomized to receive either 3 mg/kg/d S-Pindolol/kg/d (n=8), or placebo (n=14) once daily per gavage for 28 days. Body composition (lean mass) of the animals was analyzed using the EchoMRI-700 system (Echo Medical Systems, Houston, Tex., USA) before treatment, once per week during the study and at the end of the study. Body weight was recorded before treatment, once per week during the study and at the end of study. Organ weights were recorded at the end of study. One tibialis muscle per animals was dried at 60° C. for 48 h.

**Q.** With `CC(C)NCC(O)COc1cccc2[nH]ccc12` (racemic) [racemic pindolol] as the compound, how does the “Effect on diastolic blood pressure” value (healthy subjects; healthy subjects, similar dose) read?
**A.** reducing

**Q.** Which “Block of the suppressant effects of 5-HT1a agonists on dorsal raphe neuronal firing” value (5-HT1a receptor) does the source give for `CC(C)NC[C@@H](O)COc1cccc2ccccc12` [(R)-propranolol] here?
**A.** not

**Q.** With `CC(C)NC[C@H](O)COc1cccc2ccccc12` [(S)-propranolol, (S)-1-isopropylamino-3-(1-naphthyloxy)-2-propanol] as the compound, how does the “Block of the suppressant effects of 5-HT1a agonists on dorsal raphe neuronal firing” value (5-HT1a receptor) read?
**A.** blocked

**Q.** What does the source list for `CC(C)NC[C@H](O)COc1cccc2[nH]ccc12` [S-Pindolol, S-(−)-1-(1H-indol-4-yloxy)-3-(1-methylethylamino)propan-2-ol]?
**A.** Gastrocnemius organ weight at the end of the study ([1]; 0.3 mg/kg/d): 1420 ± 35 mg; Soleus organ weight at the end of the study ([1]; 0.3 mg/kg/d): 107 ± 2 mg; EDL organ weight at the end of the study ([1]; 0.3 mg/kg/d): 124 ± 6 mg; Tibialis organ weight at the end of the study ([1]; 0.3 mg/kg/d): 526 ± 15 mg; EDL percent increase in weight ([1]; 0.3 mg/kg/d): +19.2%; Soleus percent increase in weight ([1]; 0.3 mg/kg/d): +10.3%; Gastrocnemius organ weight at the end of the study ([1]; 3 mg/kg/d): 1492 ± 37 mg; Soleus organ weight at the end of the study ([1]; 3 mg/kg/d): 103 ± 3 mg; EDL organ weight at the end of the study ([1]; 3 mg/kg/d): 126 ± 4 mg; Tibialis organ weight at the end of the study ([1]; 3 mg/kg/d): 535 ± 22 mg; EDL percent increase in weight ([1]; 3 mg/kg/d): +21.1%; Soleus percent increase in weight ([1]; 3 mg/kg/d): +6.2%; Lean body mass (i.e. muscle mass) ([1]; 0.3 and 3 mg/kg/d, EchoMRI, FIG. 2): dose dependently increased; Body weight (weight gain during treatment) ([1]; high dose (3 mg/kg/d), FIG. 1, p=0.0002 vs placebo): significantly increased; Tibialis organ weight at the end of the study ([2]; gavage, old rats, placebo 827 ± 34): 1034 ± 46 mg; Gastrocnemius organ weight at the end of the study ([2]; gavage, old rats, placebo 2283 ± 78): 2914 ± 133 mg; Lean body mass (i.e. muscle mass) ([2]; old rats, EchoMRI, FIGS. 7, 8): increased; Body weight (change during the treatment period) ([2]; old rats, FIGS. 4, 5): significantly increased; Tibialis dry mass ([2]; old rats, dried at 60° C. for 48 h, placebo 227 ± 9): 276 ± 12 mg; Tibialis dry mass ([2]; old rats, placebo 27.89 ± 0.78): 27.12 ± 0.46%; Tibialis water ([2]; old rats, placebo 72.1 ± 0.78): 72.88 ± 0.46%; Soleus organ weight at the end of the study ([2]; old rats, placebo 181 ± 11): 173 ± 9 mg; EDL organ weight at the end of the study ([2]; old rats, placebo 197 ± 9): 236 ± 5 mg; Lean mass increase compared to baseline ([2]; senile rats, placebo lost 1.5%): 12.7%; Alteration in blood pressure (healthy subjects; in vivo): no alteration
